Common to all, as to format: cell-based
Assay [1] relates to 3T3-L1 adipocytes. Description: Glucose uptake assay in 3T3-L1 adipocytes. On the procedure:
Chemical synthesis yields both the α- and β-anomers of PGG. (B) Glucose transport stimulatory activity (13, 14) of PGG was assessed by incubating adipocytes in 6-well plates with insulin or PGG for 15 min followed by the addition of [^3H]-2-deoxy-D-glucose for 10 min before quantifying uptake (13, n=3, mean±SD, Two way-ANOVA, * P<0.05; ** P<0.01). α-PGG (●); β-PGG (□); insulin (∘). (C) Glucose transport induced by insulin in the presence of α-PGG. One […] of insulin was added to adipocytes in the presence of increasing amounts of α-PGG. After induction, radioactive glucose was added, and the glucose taken up by the cells was counted.
Reagents, compound synthesis, and glucose uptake assay. Bovine insulin was purchased from Sigma. PGG, in an approximate 1:1 mixture of α- and β-PGG, was synthesized from glucose in the non-radioactive form as described (22). The identity of the compounds was confirmed by MS and NMR. The compounds were dissolved in double distilled water (ddH2O), filter sterilized, and stored as a 10 mM aqueous stock solution at −20° C. The stock solutions were diluted to final concentrations with sterile ddH2O. Glucose uptake assays in 3T3-L1 adipocytes induced by PGG were performed as described (13).

Another assay relates to GLUT4. The experiment in a line: GLUT4 translocation, confocal microscopy. Particulars: adipocytes, 37° C., 15 min. The method, then:
(§1) (A) Glucose transport was measured by determining [^3H]-2-deoxyglucose uptake stimulated by either insulin or α-PGG in 3T3-L1 cells in the presence or absence of HNMPA-(AM)3, an inhibitor of IR tyrosine kinase activity (24); wortmannin, an inhibitor of PI 3-kinase (25), or cytochalasin B, an inhibitor of GLUT4 (26), (n=4, mean±SD). (B) Cells were induced by 20 or 40 μM α-PGG or 100 nM insulin for 15 min. Cell lysates were separated by PAGE and analyzed for phosphorylation of IR (in CHO-IR cells) or Akt (in adipocytes) using antibodies specific to the target proteins. (C) Cells were treated with α-PGG and insulin in a fashion similar to (B) and assayed for their respective PI-3 kinase activity with a radioactive TLC method (27). (D) In similar experiments, intact cells were analyzed by confocal microscopy for translocation of GLUT4 using anti-GLUT4 antibodies.
Protein phosphorylation/activation and GLUT4 translocation. To investigate signal transduction induced by α-PGG, proteins from 3T3-L1 adipocytes or CHO-IR cells (23), which were treated with α-PGG or insulin for 15 min, were isolated, separated by PAGE, blotted on nylon membranes, and analyzed by Western blotting with antibodies against either IR or Akt. […]

For assay [2], the system named is 3T3-L1 adipocytes. Description: Glucose uptake assay with insulin signaling pathway inhibitors. Particulars: inhibitor added along with α-PGG. The method, then: as §1
Insulin signaling pathway study with inhibitors. To identify the signaling pathway and its potential protein target for PGG's glucose transport activity, three inhibitors to the insulin signaling pathway were selected. […] Inhibitors were individually added to the 3T3-L1 adipocytes along with either α-PGG or insulin at predetermined concentrations during glucose uptake assays, and the inhibition was measured by the glucose taken in by the cell samples treated with or without inhibitors.

As for `O=C(OC[C@H]1OC(OC(=O)c2cc(O)c(O)c(O)c2)[C@H](OC(=O)c2cc(O)c(O)c(O)c2)[C@@H](OC(=O)c2cc(O)c(O)c(O)c2)[C@@H]1OC(=O)c1cc(O)c(O)c(O)c1)c1cc(O)c(O)c(O)c1` (stereo partly drawn) [PGG, 1,2,3,4,6-penta-O-galloyl-D-glucose], the “mode of action at IR for glucose transport activity” value with 3T3-L1 adipocytes [1] is given as “partial agonist”.
Consider `O=C(OC[C@H]1O[C@@H](OC(=O)c2cc(O)c(O)c(O)c2)[C@H](OC(=O)c2cc(O)c(O)c(O)c2)[C@@H](OC(=O)c2cc(O)c(O)c(O)c2)[C@@H]1OC(=O)c1cc(O)c(O)c(O)c1)c1cc(O)c(O)c(O)c1` [β-PGG], for which, in the assay on 3T3-L1 adipocytes [1] (3T3-L1 adipocytes, [3H]-2-deoxy-D-glucose uptake, 15 min incubation), the “induction of glucose transport” value is reported as “induced glucose transport in adipocytes in a dose-dependent manner”.
Consider “insulin: Bovine insulin purchased from Sigma”, for which the GLUT4 translocation entry with GLUT4 is reported as “translocated to the plasma membrane”.
Turning to `C=C1[C@@H](C)[C@H]2[C@H](Cc3ccccc3)NC(=O)[C@]23OC(=O)/C=C/[C@H](O)CCC[C@@H](C)C/C=C/[C@H]3[C@@H]1O` [cytochalasin B], in the assay on 3T3-L1 adipocytes [2], the “glucose transport activity induced by α-PGG in presence of inhibitor” value is reported as “completely abolished”.

For the origin of these results see patent US7888042B2, “Methods for identifying insulin mimetics” (Ohio University, priority 2005, dated 2011).
